Test results: BindingDB's records for patent US9539260 (Novartis AG, 2017)

Experiments:
[1] = biological target: Phosphatidylinositol 4,5-bisphosphate 3-kinase catalytic subunit alpha isoform (Homo sapiens, UniProt P42336); assay: Inhibition Assay; settings: 25 °C
Method: (§1) The final concentrations of ATP and phosphatidyl inositol in the assay are 5 μM and 6 μg/mL, respectively. […] The final concentrations of ATP and phosphatidyl inositol (PI) in the assay are 1 μM and 10 μg/mL, respectively.

[2] = biological target: T1, Phosphatidylinositol 4,5-bisphosphate 3-kinase catalytic subunit delta isoform (Homo sapiens, UniProt O00329); assay: Inhibition Assay; settings: 25 °C
T1 sequence (O00329 whole entry): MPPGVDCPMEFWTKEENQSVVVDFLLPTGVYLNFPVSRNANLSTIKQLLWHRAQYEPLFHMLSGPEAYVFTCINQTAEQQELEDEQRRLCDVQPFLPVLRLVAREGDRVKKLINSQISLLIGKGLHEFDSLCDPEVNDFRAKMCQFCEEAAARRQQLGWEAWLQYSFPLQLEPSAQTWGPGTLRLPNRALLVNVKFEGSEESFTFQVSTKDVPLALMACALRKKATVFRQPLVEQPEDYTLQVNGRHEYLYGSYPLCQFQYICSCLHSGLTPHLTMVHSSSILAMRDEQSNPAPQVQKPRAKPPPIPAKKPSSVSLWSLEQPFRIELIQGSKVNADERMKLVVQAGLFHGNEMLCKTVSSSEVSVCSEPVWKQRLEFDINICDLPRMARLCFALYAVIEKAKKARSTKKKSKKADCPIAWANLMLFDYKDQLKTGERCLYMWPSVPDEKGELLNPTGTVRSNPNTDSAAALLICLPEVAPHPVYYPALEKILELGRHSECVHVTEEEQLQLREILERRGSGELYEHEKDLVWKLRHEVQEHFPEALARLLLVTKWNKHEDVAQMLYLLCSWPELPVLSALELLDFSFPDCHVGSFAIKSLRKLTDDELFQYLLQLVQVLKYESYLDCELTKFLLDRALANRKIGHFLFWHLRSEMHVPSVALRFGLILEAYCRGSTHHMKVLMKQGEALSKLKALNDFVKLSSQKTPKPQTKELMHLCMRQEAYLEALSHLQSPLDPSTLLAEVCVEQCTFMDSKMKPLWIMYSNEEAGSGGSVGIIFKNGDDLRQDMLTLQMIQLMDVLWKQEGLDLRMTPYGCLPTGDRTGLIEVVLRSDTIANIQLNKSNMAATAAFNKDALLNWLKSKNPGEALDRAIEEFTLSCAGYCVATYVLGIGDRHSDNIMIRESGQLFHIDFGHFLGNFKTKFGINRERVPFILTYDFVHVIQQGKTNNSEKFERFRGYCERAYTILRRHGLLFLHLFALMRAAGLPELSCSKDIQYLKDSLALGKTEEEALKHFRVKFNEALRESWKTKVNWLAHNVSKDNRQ
Method: as §1

Chain of Phosphatidylinositol 4,5-bisphosphate 3-kinase catalytic subunit alpha isoform (P42336 whole entry, canonical isoform): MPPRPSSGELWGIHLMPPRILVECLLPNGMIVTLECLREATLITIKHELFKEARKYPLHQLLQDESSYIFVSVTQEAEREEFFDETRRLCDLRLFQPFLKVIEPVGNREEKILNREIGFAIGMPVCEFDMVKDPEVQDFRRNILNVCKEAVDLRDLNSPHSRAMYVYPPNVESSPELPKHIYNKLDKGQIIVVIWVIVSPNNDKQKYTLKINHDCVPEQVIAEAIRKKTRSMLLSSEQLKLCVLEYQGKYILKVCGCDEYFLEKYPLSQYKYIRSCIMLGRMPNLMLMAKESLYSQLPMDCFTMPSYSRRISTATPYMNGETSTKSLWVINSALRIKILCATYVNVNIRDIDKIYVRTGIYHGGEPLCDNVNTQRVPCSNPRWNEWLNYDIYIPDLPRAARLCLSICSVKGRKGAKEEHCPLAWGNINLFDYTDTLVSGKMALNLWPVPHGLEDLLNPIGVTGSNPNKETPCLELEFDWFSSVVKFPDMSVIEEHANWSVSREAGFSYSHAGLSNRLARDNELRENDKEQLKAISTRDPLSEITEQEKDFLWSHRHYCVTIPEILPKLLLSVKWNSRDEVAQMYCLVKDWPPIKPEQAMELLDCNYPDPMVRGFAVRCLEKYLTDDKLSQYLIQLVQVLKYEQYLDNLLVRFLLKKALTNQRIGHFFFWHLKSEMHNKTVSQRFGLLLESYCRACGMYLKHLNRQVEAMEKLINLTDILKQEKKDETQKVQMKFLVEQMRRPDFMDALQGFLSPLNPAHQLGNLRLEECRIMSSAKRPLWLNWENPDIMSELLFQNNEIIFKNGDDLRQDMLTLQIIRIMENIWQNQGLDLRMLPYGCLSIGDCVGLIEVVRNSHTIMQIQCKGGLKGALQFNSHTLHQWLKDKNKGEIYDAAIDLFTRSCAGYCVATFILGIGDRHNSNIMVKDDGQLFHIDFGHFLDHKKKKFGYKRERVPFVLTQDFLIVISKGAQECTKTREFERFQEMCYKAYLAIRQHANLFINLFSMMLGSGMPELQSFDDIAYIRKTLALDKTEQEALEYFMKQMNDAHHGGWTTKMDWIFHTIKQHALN

- IC50 [1]: 468 nM
- IC50 [2]: 23 nM
Structure (SMILES): COc1ncc(N2CCOc3ccc(O[C@H]4CCN(C(=O)C5COCCO5)C4)cc32)cc1F (some centres not stated) [US9539260, B115]
